“Also recorded” adds a separate entry of the source. {P} = phosphate
How the values were obtained:
[1] = test system: NAD(P)H oxidase; assay: DCF assay with NADPH oxidase inhibitor DPI; assay type: cell-based, human; conditions: 50 μM DPI in DCF solution; pTT or TO treated fibroblasts
Protocol: (§1) H2DCFDA stock solution (1 mg/ml) was thawed and diluted in Hanks' Balanced Salt Solution, 1× liquid without phenol red (GIBCO Invitrogen, Carlsbad, Calif.), to a working concentration of 100 μM immediately before use. H2DCFDA is converted by intracellular esterases to dichlorofiuorescein (DCF). When oxidized by intracellular ROS, it will fluoresce at 530 nm when excited by 480 nm light. […] All work involving DCF was conducted in minimal room light. Peaks on FACScan plots that shift to the right indicate greater fluorescence and increased ROS levels. For NADPH oxidase inhibitor studies using DPI,^237,239 the DPI stock solution was added directly to DCF treatment solution to achieve a final DPI treatment concentration of 50 μM.
Because p53-dependent ROS production in fibroblasts has been attributed to NAD(P)H oxidase activity,^169 a specific NADPH oxidase inhibitor, diphenyliodonium chloride (DPI),^239 was added to the DCF assay medium to determine the role of NADPH oxidases in T-oligo mediated ROS induction.

[2] = test system: intracellular ROS in normal newborn human dermal fibroblasts; assay: Dichlorofluorescein diacetate (DCF) assay of intracellular ROS, FACScan; assay type: cell-based; conditions: for DCF fluorescence (intracellular ROS) compared to diluent: 100 μM pTT / pCC, 40 μM TO / TOC1 / TOC2
Protocol: Normal newborn human dermal fibroblasts were cultured from foreskin specimens into DMEM supplemented with 10% CS as described above. Due to the large number of cells needed for time course experiments, and to minimize donor variability, in dichlorofluorescein diacetate FACS experiments cells from three different donors were combined.
Purified lyophilized oligonucleotides were obtained and prepared for cell treatment as described above. All treatments involved a single stimulation with T-oligo, after which cells were harvested at various times without medium changes or addition of more T-oligo. Treatment doses were 100 μM pTT and 40 μM TO except in dose-response experiments; these concentrations were determined in previous experiments to be optimal for measuring DNA damage responses using these T-oligos.^142,150,228
Complementary and scrambled oligonucleotides were chosen for each T-oligo. pAA and pCC were used as controls for pTT, and the complementary 11-base pCTAACCCTAAC (TOC1, SEQ ID NO: 22) and a scrambled sequence pGATCGATCGAT (TOC2, SEQ ID NO: 23) were used as controls for the T-oligo TO.
as §1
Hydrogen peroxide positive controls were used to rule out saturation of the DCF probe in the T-oligo dose response experiments. Fibroblasts were exposed to 1 mM, 5 mM and 10 mM H2O2 solutions in PBS for 15 minutes following DCF incubation for 30 minutes, harvested and analyzed as described above.
The horseradish peroxidase assay data was analyzed by one-way ANOVA. DCF assay FACScan results were analyzed using Cellquest software (Becton-Dickinson, Calif.). All peak positions on x-axis of the fluorescence histogram plot were determined visually (using the software) and recorded as a number. Peak position values were then compared using one-way ANOVA.

Compound	DCF fluorescence (intracellular ROS) compared to diluent [2]	further results
[Cl-].c1ccc([I+]c2ccccc2)cc1 [DPI, diphenyliodonium chloride]	–	effect of DPI on T-oligo-stimulated ROS (DCF fluorescence) [1]: consistently abrogated the increase in ROS stimulated by T-oligos
OO [H2O2, Hydrogen peroxide, reference compound]	–	DCF peak shift of positive control ([2]; 1 mM H2O2 for 15 minutes): greater shift than any of the T-oligo treatments
pCTAACCCTAAC (5' {P}, sugars by position and backbone not given here) [TOC1, complementary 11-base control oligonucleotide for TO, reference compound]	not significantly different from each other	–
pGATCGATCGAT (5' {P}, sugars by position and backbone not given here) [TOC2, reference compound]	not significantly different from each other; also recorded: overlapping with diluent curve	–

— patent US20100286247A1, “Methods of Protection from Oxidative Stress” (Trustees of Boston University, priority 2005, published 2010)
